# Values of other authors in patent US20210319872A1, “DRUG AND DEVICE COMBINATION PRODUCTS WITH IMPROVED SAFETY AND EFFICACY PROFILES” (priority 2016, published 2021).
# How the values were obtained:
# [1] = patients who had been started on the drug
# subjects = settings: 16 subjects after 15-mg dose, pilot and main studies, FIG. 31 B
# [2] = in vivo
# [3] = older adults
structure (smiles),measurement,setting,value
CC[C@H]1OC(=O)[C@H](C)[C@@H](O[C@H]2C[C@@](C)(OC)[C@@H](O)[C@H](C)O2)[C@H](C)[C@@H](O[C@@H]2O[C@H](C)C[C@H](N(C)C)[C@H]2O)[C@](C)(OC)C[C@@H](C)C(=O)[C@H](C)[C@@H](O)[C@]1(C)O [clarithromycin],"Digoxin toxicity, times more likely",[1],12 times
"COc1ccc2c3c1O[C@H]1C(=O)CC[C@@]4(O)[C@@H](C2)N(C)CC[C@]314 [oxycodone, reference compound]",individual time course of pupil diameter,subjects,"does not move into “pinpoint pupils”, overdose, or mydriasis"
same,Abdominal pain,[2],"Gastrointestinal: Abdominal pain (up to 5%), Constipation (Adults,"
same,Chest pain,[2],"Cardiovascular: Cardiac arrest, Chest pain (less than 1%), Heart"
same,Fever,[2],"Other: Fever (Adults, up to 5%; pediatrics, 11%)"
same,Headache,[2],"(Adults, 3% or greater; pediatrics, 14%), Somnolence (controlled-"
same,Heart failure,[2],"failure (less than 3%), Hypotension (less than 3%), Shock, ST"
same,Hypersensitivity reaction,[2],Immunologic: Hypersensitivity reaction (less than 3%)
same,Hypotension,[2],"failure (less than 3%), Hypotension (less than 3%), Shock, ST"
same,Opioid withdrawal,[2],Opioid withdrawal (1% to 5%)
same,ST segment depression,[2],"segment depression (less than 1%), Syncope (less than 1%)"
same,"Serious side effect, Gastrointestinal",[2],"Gastrointestinal: Bowel obstruction, Diverticulitis, Exacerbation"
same,"Serious side effect, Other",[2],"Other: Drug withdrawal syndrome in neonate of dependent mother,"
same,"Serious side effect, Respiratory",[2],Respiratory: Respiratory depression
same,Somnolence,[2],"release, 23%; immediate-release, 3% or greater)"
same,Sweating,[2],"(controlled-release, 5%; immediate-release, less than 3%)"
same,Syncope,[2],"segment depression (less than 1%), Syncope (less than 1%)"
[Li] [lithium],clearance rate,[3],reduced
CC(=O)O[C@H]1CC[C@@]2(C)C(=CC[C@@H]3[C@@H]2CC[C@]2(C)C(c4cccnc4)=CC[C@@H]32)C1 [Zytiga],ALT/SGPT level raised,[2],"Hepatic: ALT/SGPT level raised (11.1% to 41.9%), AST/SGOT"
same,AST/SGOT level raised,[2],"level raised (30.6% to 37.3%), Serum bilirubin raised (6.6%)"
same,Adrenal insufficiency,[2],"Endocrine metabolic: Adrenal insufficiency (0.5%), Hypokalemia"
same,Alkaline phosphatase raised,[2],Hepatic: Alkaline phosphatase raised (Greater than 20%)
same,Anemia,[2],"Hematologic: Anemia (Greater than 20%), Lymphocytopenia, All"
same,Cardiac dysrhythmia,[2],"Cardiovascular: Cardiac dysrhythmia (7.2%), Cardiorespiratory"
same,Contusion,[2],"Dermatologic: Contusion (13.3%), Flushing (19% to 22.3%)"
same,Cough,[2],"Respiratory: Cough (10.6% to 17.3%), Dyspnea (11.8%)"
same,Dyspnea,[2],"Respiratory: Cough (10.6% to 17.3%), Dyspnea (11.8%)"
same,Fatigue,[2],Other: Fatigue (39.1%)
same,Flushing,[2],"Dermatologic: Contusion (13.3%), Flushing (19% to 22.3%)"
same,Hypercholesterolemia,[2],"Endocrine metabolic: Hypercholesterolemia (Greater than 20%),"
same,Hyperglycemia,[2],"Hyperglycemia (56.6%), Hypertriglyceridemia (62.5%),"
same,Hypertriglyceridemia,[2],"Hyperglycemia (56.6%), Hypertriglyceridemia (62.5%),"
same,Hypokalemia,[2],(17.2% to 28.3%)
same,Hypophosphatemia,[2],Hypophosphatemia (23.8%)
same,Joint swelling,[2],Musculoskeletal: Joint swelling (29.5% to 30.3%)
same,"Lymphocytopenia, All grades",[2],grades (38.2%)
same,"Lymphocytopenia, Grade 3 or 4",[2],"Hematologic: Lymphocytopenia, Grade 3 or 4 (8.7%)"
same,Serum bilirubin raised,[2],"level raised (30.6% to 37.3%), Serum bilirubin raised (6.6%)"
same,Urinary tract infectious disease,[2],Renal: Urinary tract infectious disease (11.5%)
CCCC(CCC)C(=O)O.CCCC(CCC)C(=O)[O-].[Na+] [Divalproex (Depakote)],Asthenia,[2],"Neurologic: Asthenia (6% to 27%), Dizziness (up to 25%), Feeling"
same,Backache,[2],"1% to less than 5%; migraine, 8%)"
same,"Common side effects, listed without incidence",[2],"Ophthalmic: Amblyopia, Blurred vision, Diplopia (16%)"
same,Diplopia,[2],"Ophthalmic: Amblyopia, Blurred vision, Diplopia (16%)"
same,Dizziness,[2],"Neurologic: Asthenia (6% to 27%), Dizziness (up to 25%), Feeling"
same,Feeling nervous,[2],"nervous (up to 11%), Headache (31%), Insomnia (up to 15%),"
same,Headache,[2],"nervous (up to 11%), Headache (31%), Insomnia (up to 15%),"
same,Indigestion,[2],"23%), Indigestion (8% to 11%), Loss of appetite (4% to 12%),"
same,Infectious disease,[2],"Other: Infectious disease (12% to 20%), Influenza (12%)"
same,Influenza,[2],"Other: Infectious disease (12% to 20%), Influenza (12%)"
same,Insomnia,[2],"nervous (up to 11%), Headache (31%), Insomnia (up to 15%),"
same,Nausea,[2],"Nausea (26% to 48%), Vomiting (15% to 27%)"
same,Ototoxicity - deafness,[2],Otic: Ototoxicity - deafness (greater than 1% to less than 5%)
same,Palpitations,[2],"Cardiovascular: Palpitations (greater than 1% to less than 5%),"
same,Pancreatitis,[2],Gastrointestinal: Pancreatitis (greater than 1% to less than 5%)
same,Somnolence,[2],"Somnolence (Adult, 7% to 30%; pediatric, greater than 5%),"
same,Tachycardia,[2],Tachycardia (greater than 1% to less than 5%)
same,"Thrombocytopenia, Dose-related",[2],Dose-related (1% to 27%)
same,Tremor,[2],Tremor (1% to 57%)
same,Vomiting,[2],"Nausea (26% to 48%), Vomiting (15% to 27%)"
CCCCC(=O)N(Cc1ccc(-c2ccccc2-c2nnn[nH]2)cc1)[C@H](C(=O)O)C(C)C [Valsartan (Diovan)],"Common side effects, listed without incidence",[2],Respiratory: Cough
same,Dizziness,[2],"Neurologic: Dizziness (2% to 17%), Headache (greater than 1%)"
same,Headache,[2],"Neurologic: Dizziness (2% to 17%), Headache (greater than 1%)"
same,Hypotension,[2],Cardiovascular: Hypotension (5.5% to 6.9%)
same,Serum blood urea nitrogen raised,[2],"Renal: Serum blood urea nitrogen raised (heart failure, 16.6%),"
Fc1ccc([C@@H]2CCNC[C@H]2COc2ccc3c(c2)OCO3)cc1 [Paroxetine (Paxil)],Abnormal ejaculation,[2],"Reproductive: Abnormal ejaculation (13% to 28%), Erectile"
same,Asthenia,[2],"Neurologic: Asthenia (up to 22%), Dizziness (6% to 14%),"
same,Constipation,[2],"Gastrointestinal: Constipation (up to 16%), Diarrhea (up to 18%),"
same,Diaphoresis,[2],Dermatologic: Diaphoresis (5% to 14%)
same,Diarrhea,[2],"Gastrointestinal: Constipation (up to 16%), Diarrhea (up to 18%),"
same,Dizziness,[2],"Neurologic: Asthenia (up to 22%), Dizziness (6% to 14%),"
same,Erectile dysfunction,[2],"dysfunction (2% to 9%), Orgasm disorder (females; 2% to 9%),"
same,Headache,[2],"Headache (17% to 27%), Insomnia (up to 24%), Somnolence (up to"
same,Nausea,[2],"Loss of appetite (up to 9%), Nausea (up to 26%), Xerostomia (9%"
same,Orgasm disorder,[2],"dysfunction (2% to 9%), Orgasm disorder (females; 2% to 9%),"
same,Palpitations,[2],"Cardiovascular: Palpitations (up to 3%), Vasodilatation (2% to 4%)"
same,Reduced libido,[2],Reduced libido (males: 6% to 15%; females: 0% to 9%)
same,Seizure,[2],Neurologic: Seizure (0.1%)
same,Somnolence,[2],"≤ 24%), Tremor (4% to 11%)"
same,Tremor,[2],"24%), Tremor (4% to 11%)"
same,Vasodilatation,[2],"Cardiovascular: Palpitations (up to 3%), Vasodilatation (2% to 4%)"
same,Xerostomia,[2],"Loss of appetite (up to 9%), Nausea (up to 26%), Xerostomia (9%"
same,Yawning,[2],Respiratory: Yawning (4%)
